Earlier results on two molecules are cited in US20250082651A1, “GANAXOLONE FOR USE IN TREATING GENETIC EPILEPTIC DISORDERS” (Marinus Pharmaceuticals, Inc., priority 2017, published 2025).

The conditions of data set [1]: human plasma; cited from earlier work.
Data set [2] concerns patients with CDKL5-related epilepsy. Particulars: CDKL5 deficiency disorder patients; cited from earlier work.

For the molecule `CC(=O)[C@H]1CC[C@H]2[C@@H]3CC[C@H]4C[C@H](O)CC[C@]4(C)[C@H]3CC[C@]12C` [Allopregnanolone, 3α,5α-tetrahydroprogesterone, reference compound], the Half-life result in data set [1] is given as “about 45 minutes”. With `CCCC(CCC)C(=O)O` [valproic acid], in data set [2], the “Responder rate at 12 months” value is recorded as 9%.
